Measured values reported in patent US5496824A, “Cyclopropane derivatives and anti-viral agent containing the same” (Ajinomoto Co., Inc., priority 1993, dated 1996).
Converted amounts (≈) assume the structure as drawn.

What was measured:
Type in all cases: cell-based
[1] = system: varicella zoster virus (Kawaguchi strain); test: Anti-viral activity against varicella zoster virus, plaque reduction assay in human embryonic lung (HEL) cells; conditions: Human alphaherpesvirus 3, 72 h, 3 days, read-out: PI50 (50% plaque decrease concentration)
Description: The activity of test compounds against varicella zoster virus was measured by plaque reduction assay. Confluent monolayers of human embryonic lung (HEL) cells grown in 6-well plates were infected with varicella zoster virus (Kawaguchi strain) in such a way that each well might have 100 plaque-forming units. After incubated at 37 C. for one hour in 5% CO2 atmosphere, the inoculum was removed and 3 ml of maintenance media containing the test compound having a varying concentration was added thereto. The incubation was continued for 3 days. After incubation, the cells were fixed and stained, the number of plaques was counted microscopically. In comparison to the control, the 50% plaque decrease concentration (PI50) of the test compound was determined. As a comparative compound, acyclovir was used.

in vitro = conditions: african green monkey, vero cells
Description: (§1) The anti-viral activity of the prepared compounds against herpes simplex virus was measured by neutral red dye-uptake method (J. Infect. Dis. 148: 868 (1983)) with modification. Precisely, threefold dilutions of the compounds were prepared in 100 μl volumes of culture medium in the wells of a 96-well culture plate. Sixty microliters of a suspension of Vero cells (3×10^5 cells/ml) were then dispensed into each well. HSV-1 (Tomioka strain) was diluted in medium to approximately 100 TCID50 /40 μl, as determined by prior titration in a similar dye uptake assay, and 40 μl of viral suspension were added to the respective wells. Control wells containing no test compound and no virus (cell control) or no cells (blank control) were included in each plate. After 3 days incubation at 37° C. in 5% CO2 atmosphere, 50 μl of neutral red dye (0.15% in saline, pH 5.5) was dispensed into each well and the cultures were incubated for a further 45 min at 37° C. Unincorporated dye was removed by rinsing with PBS. The dye incorporated by viable cells was then eluted into 100 μl per well of citrate ethanol buffer (pH 4.2; equal volumes of 0.1 M Sorensen citrate buffer and ethanol), and absorbance at 540 nm of the solution was measured. […] As a comparative compound, acyclovir was used.

HSV-1 (Tomioka strain) = test: Anti-viral activity against herpes simplex virus, neutral red dye-uptake method in Vero cells; conditions: Human alphaherpesvirus 1, 72 h, 3 days at 37° C., read-out: ID50 (the source's name)
Description: as §1

| SMILES | IC50 [1] [µg/mL] | CC50 at 72 h (in vitro) [µg/mL] | EC50 (HSV-1 (Tomioka strain)) [µg/mL] |
| --- | --- | --- | --- |
| C=Cc1cn(C[C@]2(CO)C[C@H]2CO)c(=O)[nH]c1=O [Example 6, 1-[1'S,2'R-bis(hydroxymethyl)cyclopropan-1'-yl]methyl-5-ethenyl-2,4(1H,3H)-pyrimidinedione] | 11.1 (≈ 44 µM) | > 500 | 3.2 (≈ 12.7 µM) |
| O=c1[nH]c(=O)n(C[C@]2(CO)C[C@H]2CO)cc1Br [Example 3, 1-[1'S,2'R-bis(hydroxymethyl)-cyclopropan-1'-yl]methyl-5-bromo-2,4(1H,3H)-pyrimidinedione] | 97 (≈ 318 µM) | > 500 | 215 (≈ 705 µM) |
| CC#Cc1cn(C[C@]2(CO)C[C@H]2CO)c(=O)[nH]c1=O [Example 12, 1-[1'S,2'R-bis(hydroxymethyl)-cyclopropan-1'-yl]methyl-5-(1-propynyl)-2,4(1H,3H)-pyrimidinedione] | 19.8 (≈ 74.9 µM) | > 500 | 325 (≈ 1230 µM) |
| O=c1[nH]c(=O)n(C[C@]2(CO)C[C@H]2CO)cc1/C=C/Cl [Example 7, 1-[1'S, 2'R-bis(hydroxymethyl)-cyclopropan-1'-yl]methyl-5-[(E)-2-chloroethenyl]-2,4(1H,3H)-pyrimidinedione] | 0.07 (≈ 0.244 µM) | > 500 | 4.3 (≈ 15 µM) |
| O=c1[nH]c(=O)n(C[C@]2(CO)C[C@H]2CO)cc1Cl [Example 2, 1-[1'S,2'R-bis(hydroxymethyl)-cyclopropan-1'-yl]methyl-5-chloro-2,4(1H,3H)-pyrimidinedione] | > 100 | > 500 | 295 (≈ 1130 µM) |
| Nc1nc2c(ncn2COCCO)c(=O)[nH]1 [acyclovir, reference compound] |  | > 500 | 0.8 (≈ 3.55 µM) |
| C#Cc1cn(C[C@]2(CO)C[C@H]2CO)c(=O)[nH]c1=O [Example 11, 1-[1'S,2'R-bis(hydroxymethyl)-cyclopropan-1'-yl]methyl-5-ethynyl-2,4(1H,3H)-pyrimidinedione] | > 100 | > 500 | 310 (≈ 1240 µM) |
| O=c1[nH]c(=O)n(C[C@]2(CO)C[C@H]2CO)cc1/C=C/Br [Example 8, 1-[1'S,2'R-bis(hydroxymethyl)-cyclopropan-1'-yl]methyl-5-[(E)-2-bromoethenyl]-2,4(1H,3H)-pyrimidinedione] | 0.031 (≈ 0.0936 µM) | > 500 | 14.5 (≈ 43.8 µM) |
| O=c1[nH]c(=O)n(C[C@]2(CO)C[C@H]2CO)cc1/C=C/I [Example 10, 1-[1'S,2'R-bis(hydroxymethyl)-cyclopropan-1'-yl]methyl-5-[(E)-2-iodoethenyl]-2,4(1H,3H)-pyrimidinedione] | 0.054 (≈ 0.143 µM) | 330 (≈ 873 µM) | 24.6 (≈ 65.1 µM) |
| O=c1[nH]c(=O)n(C[C@]2(CO)C[C@H]2CO)cc1F [Example 1, 1-[1'S,2'R-bis(hydroxymethyl)-cyclopropan-1'-yl]methyl-5-fluoro-2,4(1H,3H)pyrimidinedione] | > 100 | > 500 | > 500 |
| O=c1[nH]c(=O)n(C[C@]2(CO)C[C@@H]2CO)cc1/C=C/Br (relative stereo) [Example 15, 1-[1'α,2'β-2-bis(hydroxymethyl)cyclopropanyl-yl]methyl-5-[(E)-2-bromoethenyl]-2,4(1H,3H)-pyrimidinedione] | 87 (≈ 263 µM) | > 500 | 78 (≈ 236 µM) |
| O=c1[nH]c(=O)n(C[C@]2(CO)C[C@H]2CO)cc1C(F)(F)F [Example 5, 1-[1'S,2'R-bis(hydroxymethyl)-cyclopropan-1'-yl]methyl-5-trifluoromethyl-2,4(1H,3H)-pyrimidinedione] | > 100 | 234 (≈ 795 µM) | > 500 |
| O=c1[nH]c(=O)n(C[C@@]2(CO)C[C@@H]2CO)cc1/C=C/Br [Example 14, 1-[1'R,2'S-bis(hydroxymethyl)-cyclopropan-1'-yl]methyl-5-[(E)-2-bromoethenyl]-2,4(1H,3H)-pyrimidinedione] | 7.4 (≈ 22.3 µM) | > 500 | > 500 |
| CCc1cn(C[C@]2(CO)C[C@H]2CO)c(=O)[nH]c1=O [Example 13, 1-[1'S,2'R-bis(hydroxymethyl)-cyclopropan-1'-yl]methyl-5-ethyl-2,4(1H,3H)-pyrimidinedione] | 95 (≈ 374 µM) | > 500 | 24.3 (≈ 95.6 µM) |
| O=c1[nH]c(=O)n(C[C@]2(CO)C[C@H]2CO)cc1I [Example 4, 1-[1'S,2'R-bis(hydroxymethyl)-cyclopropan-1'-yl]methyl-5-iodo-2,4(1H,3H)-pyrimidinedione] | 9.3 (≈ 26.4 µM) | > 500 | 90 (≈ 256 µM) |
